Results taken from EP0006128A1, “2,3-Dihydro-2-methyl-3-(2-(dimethylamino)-propyl)-3-phenyl-1H-indol-1-carboxaldehyde, process for its preparation and pharmaceutical preparations containing it” (Dr. Karl Thomae GmbH, priority 1978, dated 1980).
Where two headings read alike, the source gives them in different places.

Columns and labels:
Katze = assay: Antitussive effect in the cat, method of Domenjoz; format: in vivo; conditions: dose range 0,5 bis 2 mg/kg i.v.
Acute toxicity in mice = conditions: mouse, in vivo, mice of both sexes, 20 g, 14 days observation
Procedure: Für die Bestimmung der akuten Toxizität wurden Mäuse beider Geschlechter mit einem Körpergewicht von 20 g verwendet. 10 Tiere pro Dosis erhielten die Substanz einmalig appliziert. Die Berechnung der DL50, der Dosis, nach deren Verabreichung 50 % der Tiere innerhalb der Beobachtungszeit verstarben, erfolgte i nach der Methode von LITCHFIELD und WILCOXON nach einer Beobachtungszeit von 14 Tagen: • Racemat CL50 p.o.: 545 mg/kg DL50 i.v.: 66 mg/kg, […]

[1] = system: durch Acetylcholin hervorgerufenen Bronchialspasmen; assay: Broncholytic effect in guinea pigs, method of Konzett and Rössler (acetylcholine-induced bronchospasm); format: in vivo, Meerschweinchen; conditions: Cavia porcellus, iv, i.v. injection, dose giving 50 % reduction, read-out: Herabsetzung der durch Acetylcholin hervorgerufenen Bronchialspasmen um 50 %
Procedure: Die broncholytische Wirkung wurde an Meerschweinchen nach der Methode von KONZETT und RÖSSLER (Arch. exp. Path. Pharmakol. 195, 71, (1940)) geprüft. Die Herabsetzung der durch Acetyl- cholin hervorgerufenen Bronchialspasmen um 50 % wurde durch i.v.-Injektion von 1,5 mg/kg des Racemats erreicht, beim (-)-Enantiomeren reichten bereits 1 mg/kg aus, um etwa den gleichen Effekt zu erreichen.

wachen weißen Ratten = assay: Cough test in conscious rats, cough provoked by inhaled citric acid spray; format: in vivo; conditions: Rattus norvegicus, po, 0.5 h; male rats, per os as Tylose suspension, 7,5 % citric acid spray over 2 min, cough count 30 min after application, dose halving the number of coughs
Source text: Die Hustenversuche wurden an wachen weißen Ratten (Geschlecht: männlich) durchgeführt. Die Hustenprovokation erfolgte durch Inhalation eines 7,5 %igen Zitronensäuresprays über 2 Minuten. 10 Tiere pro Dosis erhielten die Substanz als Tyloseaufschwemmung peroral appliziert. Die Bewertung erfolgte aus der durchschnittlichen prozentualen Abnahme der Zahl der Hustenstöße 30 Minuten nach Applikation gegenüber den Leerwerten. (Weitere methodische Angaben: ENGELHORN und PÜSCHMANN, Arzneim.-Forsch. 13, 474-480,(1963)). Die ED50 ist die Dosis, nach deren Verabreichung die Zahl der Hustenstöße durchschnittlich um die Hälfte vermindert wird, die Berechnung erfolgte nach der Methode von Litchfield und Wilcoxon. Es wurde für das Racemat eine ED50 von 3,9 mg/kg per os gefunden.

[2] = po, single dose p.o., read-out: DL50 p.o.

SMILES | antitussive Wirkung (Katze) | LD50 at 336 h (Acute toxicity in mice; [2]) [mg/kg] | ED50 [1] [mg/kg] | ED50 (wachen weißen Ratten) [mg/kg] | LD50 at 336 h (Acute toxicity in mice; iv, single dose i.v., read-out: DL50 i.v.) [mg/kg]
CC(CC1(c2ccccc2)c2ccccc2N(C=O)C1C)N(C)C (single isomer, unassigned; (+)) [(+)-Enantiomeres, (+)-2,3-Dihydro-2-methyl-3-[2-(dimethylamino)-propyl]-3-phenyl-1H-indol-1-carboxaldehyd] | deutliche hustenstillende Wirkung | ~500 | – | – | –
CC(CC1(c2ccccc2)c2ccccc2N(C=O)C1C)N(C)C (single isomer, unassigned; (-)) [(-)-Enantiomeres, (-)-2,3-Dihydro-2-methyl-3-/2-(dimethylamino)-propyl/-3-phenyl-1H-indol-1-carboxaldehyd] | – | ~560 | ~1 | – | –
CC(CC1(c2ccccc2)c2ccccc2N(C=O)C1C)N(C)C (racemic) [Racemat, Rac. 2,3-Dihydro-2-methyl-3-[2-(dimethylamino)-propyl]-3-phenyl-1H-indol-1-carboxaldehyd] | deutliche hustenstillende Wirkung | 545 | 1.5 | 3.9 | 66
